Measurements published in ChEMBL document CHEMBL4680259, “Discovery of bazedoxifene analogues targeting glycoprotein 130” (Eur J Med Chem, 2020).
Calls of active or inactive are those of the source. The calls are words filed in the database; no cut-off is given here.

Key:
[1] = tested on: A549; assay: Antiproliferative activity against human A549 cells assessed as cell growth inhibition measured after 24 hrs by MTT assay; format: functional, cell-based; details: A549, 24 h
[2] = target: T1, Interleukin-6 receptor subunit beta (Homo sapiens, UniProt P40189); assay: Binding affinity to immobilized GP130 (unknown origin) by SPR analysis
T1 sequence (P40189 whole entry): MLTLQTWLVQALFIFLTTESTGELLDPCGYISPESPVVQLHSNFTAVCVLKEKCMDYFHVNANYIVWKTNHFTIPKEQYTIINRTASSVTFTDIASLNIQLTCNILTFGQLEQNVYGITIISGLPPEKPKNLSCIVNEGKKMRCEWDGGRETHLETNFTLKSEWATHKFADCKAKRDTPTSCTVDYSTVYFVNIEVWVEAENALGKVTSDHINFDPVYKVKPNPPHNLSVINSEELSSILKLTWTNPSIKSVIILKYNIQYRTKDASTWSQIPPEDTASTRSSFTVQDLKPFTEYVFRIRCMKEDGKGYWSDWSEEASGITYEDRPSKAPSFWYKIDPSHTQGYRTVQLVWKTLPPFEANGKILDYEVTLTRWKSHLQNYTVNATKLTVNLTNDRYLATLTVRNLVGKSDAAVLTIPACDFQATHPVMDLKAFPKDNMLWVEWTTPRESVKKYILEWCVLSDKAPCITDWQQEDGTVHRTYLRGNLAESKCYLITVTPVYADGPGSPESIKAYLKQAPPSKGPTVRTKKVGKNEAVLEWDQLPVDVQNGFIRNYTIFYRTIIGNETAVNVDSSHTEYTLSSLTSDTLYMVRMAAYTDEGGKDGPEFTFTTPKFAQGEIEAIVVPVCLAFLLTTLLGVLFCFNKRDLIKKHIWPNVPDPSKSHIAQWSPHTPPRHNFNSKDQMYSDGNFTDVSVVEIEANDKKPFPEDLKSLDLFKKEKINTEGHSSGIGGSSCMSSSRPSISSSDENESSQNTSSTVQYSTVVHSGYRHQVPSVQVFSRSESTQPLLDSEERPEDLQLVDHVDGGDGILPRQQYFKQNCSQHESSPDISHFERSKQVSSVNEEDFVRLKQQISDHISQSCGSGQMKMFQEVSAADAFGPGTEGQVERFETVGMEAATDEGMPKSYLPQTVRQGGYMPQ

[3] = target: T2, Interleukin-6 receptor subunit beta (Homo sapiens) (UniProt P40189); assay: Inhibition of GP130 in human A549 cells assessed as decrease in STAT3 phosphorylation at Y705 residue at 3 to 9 uM incubated for 24 hrs by western blot analysis; format: cell-based; details: dose 3-9 µM
T2 sequence (whole entry): T1 sequence (P40189 whole entry)

[4] = target: T2, Interleukin-6 receptor subunit beta (Homo sapiens); assay: Inhibition of GP130 in human A549 cells assessed as decrease in IL6-induced STAT3 phosphorylation at Y705 residue at 9 uM incubated for 24 hrs by western blot analysis; format: cell-based
[5] = target: T2, Interleukin-6 receptor subunit beta (Homo sapiens); assay: Inhibition of GP130 in human A549 cells assessed as reduction in cyclin-D1 protein expression after 24 hrs by Western blot analysis; format: cell-based; details: dose 3-9 µM
[6] = tested on: A549; assay: Induction of apoptosis in human A549 cells assessed as early apoptotic cells at 3 uM incubated for 24 hrs by annexin V-FITC and propidium iodide staining based flow cytometry analysis (reference value: 0.5 %); format: functional
[7] = tested on: A549; assay: Induction of apoptosis in human A549 cells assessed as viable cells at 6 uM incubated for 24 hrs by annexin V-FITC and propidium iodide staining based flow cytometry analysis (reference value: 97.7 %); format: functional; details: read-out: Activity
[8] = tested on: A549; assay: Induction of ROS generation in human A549 cells assessed as fold increase in ROS level at 9 uM after 24 hrs by DCFH-DA staining based flow cytometric analysis relative to control; format: functional
[9] = AUC (0 to infinity) in rat at 5 mg/kg, ig; format: ADME, organism-based; parameters: route […], time infinity, dose 5 mg/kg; details: in vivo, po
[10] = Clearance in rat at 0.5 mg/kg, iv; format: ADME, organism-based; details: in vivo
[11] = Volume of distribution in rat at 0.5 mg/kg, iv; format: ADME, organism-based; details: in vivo

## NC(=O)N1N=C(c2ccc(C(F)(F)F)cc2)CC1c1cn(Cc2ccc(OCCN3CCCCCC3)cc2)c2ccc(Br)cc12 (stereo unspecified)
[1]
  IC50: 4.46 µM
[2]
  Kd: 3.8 µM
[3]
  Activity: Active
[4]
  Activity: Active
[5]
  inhibition: Dose-dependent effect
[6]
  Activity: 0.9%
[7]
  viability at 6 µM: 91.5%
[8]
  fold change (FC): 6.28
[9]
  AUC: 329.9 ng·h/mL
[10]
  clearance: 14.5 mL/min/kg
[11]
  Vd: 14.6 L/kg
